Measured values as given in patent publication US11891387B2, “Monoacylglycerol lipase modulators” (Janssen Pharmaceutica NV, priority 2020, dated 2024).

Target: human MGL from HeLa cells (Homo sapiens (Human), UniProt Q99685)
Experiment: MGL in vitro activity assay: cleavage of [glycerol-1,3-3H]-oleyl glycerol, activated carbon filtration
Format: biochemical
Details: 300 nM [Glycerol-1,3-3H]-oleyl glycerol, endogenously expressed MGL from HeLa cells, one hour incubation
In short: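 Endogenous human MGL from HeLa cells or homogenates was incubated with compound and 300 nM [glycerol-1,3-3H]-oleyl glycerol for one hour. Released [3H]-glycerol passing an activated carbon filter was counted as the measure of activity. Screening used 10 μM compound, with IC50 top concentration set empirically.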

Sequence of human MGL from HeLa cells (Q99685 whole entry): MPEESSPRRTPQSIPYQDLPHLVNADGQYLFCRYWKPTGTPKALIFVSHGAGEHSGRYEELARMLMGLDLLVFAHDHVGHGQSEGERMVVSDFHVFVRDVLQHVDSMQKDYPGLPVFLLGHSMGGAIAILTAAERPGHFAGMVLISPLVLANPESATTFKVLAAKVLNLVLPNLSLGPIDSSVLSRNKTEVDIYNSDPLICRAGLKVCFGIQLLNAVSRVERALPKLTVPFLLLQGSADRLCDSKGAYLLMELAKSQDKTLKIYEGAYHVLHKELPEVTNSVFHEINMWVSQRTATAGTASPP

| IC50 [nM] | SMILES |
| --- | --- |
| 24 | Cc1c(C(=O)N2CCc3c(nn(C)c3-c3cc(C(F)(F)F)nn3C)[C@@H]2C)ccc2ncsc12 [Example 133, (S)-(2,7-Dimethyl-3-(1-methyl-3-(trifluoromethyl)-1H-pyrazol-5-yl)-2,4,5,7-tetrahydro-6H-pyrazolo[3,4-c]pyridin-6-yl)(7-methylbenzo[d]thiazol-6-yl)methanone] |
| 87 | Cc1cc2ncsc2cc1C(=O)N1CCc2c(nn(C)c2-c2cc(C(F)(F)F)nn2C)[C@@H]1C [Example 134, (S)-(2,7-Dimethyl-3-(1-methyl-3-(trifluoromethyl)-1H-pyrazol-5-yl)-2,4,5,7-tetrahydro-6H-pyrazolo[3,4-c]pyridin-6-yl)(5-methylbenzo[d]thiazol-6-yl)methanone] |
| 22 | Cc1cc(C(=O)N2CCc3c(nn(C)c3-c3cc(C(F)(F)F)nn3C)[C@@H]2C)cc2scnc12 [Example 135, (S)-(2,7-Dimethyl-3-(1-methyl-3-(trifluoromethyl)-1H-pyrazol-5-yl)-2,4,5,7-tetrahydro-6H-pyrazolo[3,4-c]pyridin-6-yl)(4-methylbenzo[d]thiazol-6-yl)methanone] |
